PMC6917776, “Discovery of a chemical probe for PRDM9” (Nature Communications, 2019)

System: H3K4me3 at known PRDM9 binding loci and control TSS loci
Test: ChIP-qPCR of H3K4me3 in PRDM9-transfected HEK293T cells
Format: cell-based, human
Settings: for H3K4me3 ChIP-qPCR 2^-dCq (IP-Input) / 2^-dCq (H3K4me3 IP relative to H3): Replicate 2; for H3K4me3 ChIP-qPCR 2^-dCq (IP-Input): H3K4me3 antibody relative to H3; for <Cq>: mean of two wells, Antibody H3K4me3, Plasmid PRDM9WT, Figure 7 Replicate 2
Procedure: ChIP-qPCR assays were then conducted on known PRDM9 binding loci[26]. Ectopic expression of PRDM9^WT increased trimethylation of H3K4 (H3K4me3) at previously described PRDM9-specific intragenic and intergenic regions[26] (Fig. 7; Supplementary Fig. 12). […] The observed increases in H3K4me3 levels at intragenic and intergenic regions are therefore due directly to PRDM9 PR domain-dependent methylation activity, rather than through recruitment of other H3K4 methyltransferases or other indirect mechanisms.
ChIP qPCR analyses of H3K4me3 methylation levels of known PRDM9-bound loci and control loci. […] Concentrations used (µM) are indicated below each plot. (a–d) represent reported loci of PRDM9 methylation; (e, f) are transcriptional start sites (TSSs) which are not known loci of PRDM9 methylation. Data are normalized to total H3 and are presented as the mean ± upper and lower limits from two replicates. Representative plots of two independent experiments are shown in this figure. The coordinates and the genomic features associated with the assayed loci are indicated above each plot. Left Tailed Student's t-tests were performed by comparing DMSO (0 µM) treated cells to compound treated cells that have been transfected with the same plasmids. *p-value < 0.05 and **p-value < 0.01. Note that here we show a representative of two independent experiments (mean ± s.d of technical replicates) for our ChIP-qPCR experiments. Data obtained using this technique are inherently noisy due to stochastic differences in gene activity/histone positioning. Data are thus typically presented as representative rather than averaged. Source data are provided as a Source Data file.
HEK293T cells were transfected with 37.5 μg empty pcDNA3.1(+) vector (Invitrogen), or the same vector expressing either wild-type PRDM9 (PRDM9^WT) or a catalytically dead PRDM9 mutant (PRDM9^Mut) and 75 μL of Lipofectamine 2000 (Invitrogen) in 6 mL of Opti-MEM (GIBCO) for 48 h. […] ChIP assays were then performed as previously described. Briefly, cells were fixed in 1% formaldehyde and the fixation reaction was quenched in a final concentration of 0.1 M glycine. Cell pellets were first lysed in LB1 (50 mM HEPES-KOH pH 7.5, 140 mM NaCl, 1 mM EDTA, 10% Glycerol, 0.5% Igepal, 0.25% TritonX), washed once in LB2 Buffer (10 mM Tris-HCl pH 8, 200 mM NaCl, 1 mM EDTA, 0.5 mM EGTA) and finally sonicated in LB3 buffer (10 mM Tris-HCl pH 8, 100 mM NaCl, 1 mM EDTA, 0.5 mM EGTA, 0.1% Sodium deoxycholate, 0.5% N-laurosylsarcosine) using a bioruptor (Diagenode). Thereafter, 50 μg of chromatin was subjected to ChIP using the following antibodies purchased from Abcam: α-H3K4me3 (1:200, ab8580, lot:GR3207339-1) and α-H3 (1:250, ab1791, lot:GR300978-4). After extensive washing in RIPA wash buffer (50 mM HEPES-KOH pH 7.6, 100 mM LiCl, 1 mM EDTA, 1% Igepal, 0.7% Sodium Deoxycholate), DNA was eluted from beads. The eluted DNA was treated with RNase A and Proteinase K and purified using the QIAGEN PCR purification kit. qPCR was then carried out targeting the indicated loci (Supplementary Table 3). Upper and lower limits were defined by |2^−(dCq±s) − 2^−(∆Cq)|, where s = √((Standard deviation of Input Cq)^2 + (Standard deviation of Target Cq)^2). […]
formation. ChIP qPCR analyses of H3K4me3 methylation levels at known PRDM9-bound and control loci. Cells transfected with empty vector (negative control) or vectors overexpressing either wild-type PRDM9 (PRDM9 WT) or catalytically dead PRDM9 (PRDM9 MUT) were […]
Panels a-d represent reported loci of […]
(1 picture or pasted object on this page, not shown here)
PRDM9 methylation; e-f are TSSs which are not known sites of PRDM9 methylation. Data are normalized to total H3 and are presented as the mean ± upper and lower limits from two […]

**Q.** What does the source list for `COc1cc(OC)cc(-c2noc(N3CCN(C)C4(CCN(c5ccnc(C)c5)CC4)C3)n2)c1` [MRK-740]?
**A.** H3K4me3 ChIP-qPCR 2^-dCq (IP-Input) (chr2:40281930-40282015 Intragenic (SLC8A1-AS1), Figure 7 C, PRDM9WT, Drug Conc. 10): 2.181; 2^-dCq (H3K4me3 IP relative to H3) (chr2:40281930-40282015 Intragenic (SLC8A1-AS1), Empty Vector, Drug Conc. 5, Figure S12 C): 0.9795; 2^-dCq (H3K4me3 IP relative to H3) (chr2:40281930-40282015 Intragenic (SLC8A1-AS1), PRDM9MUT, Drug Conc. 5, Figure S12 C): 0.2048; 2^-dCq (H3K4me3 IP relative to H3) (chr2:40281930-40282015 Intragenic (SLC8A1-AS1), PRDM9WT, Drug Conc. 5, Figure S12 C): 5.934; H3K4me3 ChIP-qPCR 2^-dCq (IP-Input) (chr2:128811847-128811944 (Intergenic), Figure 7 A, Empty Vector, Drug Conc. 2.5): 1.167; H3K4me3 ChIP-qPCR 2^-dCq (IP-Input) (chr2:128811847-128811944 (Intergenic), Figure 7 A, Empty Vector, Drug Conc. 5): 1.563; H3K4me3 ChIP-qPCR 2^-dCq (IP-Input) (chr2:128811847-128811944 (Intergenic), Figure 7 A, Empty Vector, Drug Conc. 10): 1.267; H3K4me3 ChIP-qPCR 2^-dCq (IP-Input) (chr2:128811847-128811944 (Intergenic), Figure 7 A, PRDM9WT, Drug Conc. 2.5): 4.007; H3K4me3 ChIP-qPCR 2^-dCq (IP-Input) (chr2:128811847-128811944 (Intergenic), Figure 7 A, PRDM9WT, Drug Conc. 5): 4.852; H3K4me3 ChIP-qPCR 2^-dCq (IP-Input) (chr2:128811847-128811944 (Intergenic), Figure 7 A, PRDM9WT, Drug Conc. 10): 1.932; 2^-dCq (H3K4me3 IP relative to H3) (chr2:128811847-128811944 (Intergenic), Empty Vector, Drug Conc. 5, Figure S12 A): 1.563; 2^-dCq (H3K4me3 IP relative to H3) (chr2:128811847-128811944 (Intergenic), PRDM9MUT, Drug Conc. 5, Figure S12 A): 0.3928; 2^-dCq (H3K4me3 IP relative to H3) (chr2:128811847-128811944 (Intergenic), PRDM9WT, Drug Conc. 5, Figure S12 A): 4.852; 2^-dCq (H3K4me3 IP relative to H3) (chr3:165514798-165514911 Intragenic (BCHE), Empty Vector, Drug Conc. 5, Figure S12 D): 0.9187; 2^-dCq (H3K4me3 IP relative to H3) (chr3:165514798-165514911 Intragenic (BCHE), PRDM9MUT, Drug Conc. 5, Figure S12 D): 0.2392; 2^-dCq (H3K4me3 IP relative to H3) (chr3:165514798-165514911 Intragenic (BCHE), PRDM9WT, Drug Conc. 5, Figure S12 D): 7.878; H3K4me3 ChIP-qPCR 2^-dCq (IP-Input) (chr8:49932778-49932856 (Intergenic), Figure 7 B, Empty Vector, Drug Conc. 2.5): 0.8281; H3K4me3 ChIP-qPCR 2^-dCq (IP-Input) (chr8:49932778-49932856 (Intergenic), Figure 7 B, Empty Vector, Drug Conc. 5): 1.029; H3K4me3 ChIP-qPCR 2^-dCq (IP-Input) (chr8:49932778-49932856 (Intergenic), Figure 7 B, Empty Vector, Drug Conc. 10): 0.9528; H3K4me3 ChIP-qPCR 2^-dCq (IP-Input) (chr8:49932778-49932856 (Intergenic), Figure 7 B, PRDM9WT, Drug Conc. 2.5): 8.6274; H3K4me3 ChIP-qPCR 2^-dCq (IP-Input) (chr8:49932778-49932856 (Intergenic), Figure 7 B, PRDM9WT, Drug Conc. 5): 4.182; H3K4me3 ChIP-qPCR 2^-dCq (IP-Input) (chr8:49932778-49932856 (Intergenic), Figure 7 B, PRDM9WT, Drug Conc. 10): 1.779; 2^-dCq (H3K4me3 IP relative to H3) (chr8:49932778-49932856 (Intergenic), Empty Vector, Drug Conc. 5, Figure S12 B): 1.029; 2^-dCq (H3K4me3 IP relative to H3) (chr8:49932778-49932856 (Intergenic), PRDM9MUT, Drug Conc. 5, Figure S12 B): 0.2948; 2^-dCq (H3K4me3 IP relative to H3) (chr8:49932778-49932856 (Intergenic), PRDM9WT, Drug Conc. 5, Figure S12 B): 4.182; 2^-dCq (H3K4me3 IP relative to H3) (chr12:6643945-6644023 TSS (GAPDH), Empty Vector, Drug Conc. 5, Figure S12 E): 83.0384; 2^-dCq (H3K4me3 IP relative to H3) (chr12:6643945-6644023 TSS (GAPDH), PRDM9MUT, Drug Conc. 5, Figure S12 E): 72.3311; 2^-dCq (H3K4me3 IP relative to H3) (chr12:6643945-6644023 TSS (GAPDH), PRDM9WT, Drug Conc. 5, Figure S12 E): 130.72; 2^-dCq (H3K4me3 IP relative to H3) (chr19:8510167-8510261 TSS (HNRNPM), Empty Vector, Drug Conc. 5, Figure S12 F): 107.435; 2^-dCq (H3K4me3 IP relative to H3) (chr19:8510167-8510261 TSS (HNRNPM), PRDM9MUT, Drug Conc. 5, Figure S12 F): 76.5131; 2^-dCq (H3K4me3 IP relative to H3) (chr19:8510167-8510261 TSS (HNRNPM), PRDM9WT, Drug Conc. 5, Figure S12 F): 143.684; <Cq> (Drug Conc. 2.5): 20.8229; <Cq> (Drug Conc. 5): 20.8538; <Cq> (Drug Conc. 10): 21.2288
